Key:
LPS induced proteinuria = LPS induced proteinuria in mice; type: in vivo; conditions: 4000 mg/kg intravenously 1 hour prior to LPS, urines 30 hours after first LPS injection, p<0.05 LPS+CD versus LPS
Description: FIG. 6A-FIG. 6B: Depicts that CD partially prevents LPS induced podocyte damage. FIG. 6A: Depicts the results when HPBCD was administered intravenously (4000 mg/kg) 1 hour prior to LPS injection (200 ug/20 g mouse intraperitoneally). Urines were collected […] after LPS injection and analyzed for albumin/creatinine ratio by ELISA. p<0.05 when comparing LPS+CD versus LPS. FIG. 6B: Depicts that CD prevented LPS induction of MyD88 in isolated glomeruli in vivo. Referring to FIG. 6A, the antiproteinuric effects of CD were tested in an established experimental model of LPS induced proteinuria. Three mice per group were utilized. Mice were left untreated (CTRL), or received one injection of 4000 mg/kg Hydroxypropyl-beta-cyclodextrin (CD), or two injections of 200 μg LPS 24 hours apart (LPS), or received 4000 mg/kg of CD 1 hour prior to LPS treatment (LPS+CD). Urines were collected at 30 hours after the first LPS injection and analyzed for albumin and creatinine content by ELISA. Albuminuria was determined as the ratio between albumin and creatinine (μg/mg).

[1] = tested on: human podocytes exposed to DM w DN sera; assay: Human podocytes exposed to sera of diabetic patients with DN (blebbing, cholesterol, apoptosis); type: cell-based; conditions: normal human podocytes exposed to sera of patients with diabetic nephropathy; cholesterol depletion with Methyl-beta-cyclodextrin
Description: DN is a chronic progressive disease that affects a sizable subset of patients with diabetes. Despite the identification of multiple risk factors that contribute to the development of DN, it has remained difficult to identify the subset of patients with diabetes at risk for DN. This led to testing to determine if an in vitro prediction assay could be developed. For this purpose, the following experiments were conducted. Non-identifiable samples of patient sera were obtained. Samples consisted of serum collected from 10 patients with diabetes and macroalbuminuria (DM w DN) and 10 diabetic normoalbuminuric patients (DM w/o DN) well matched for HgA1C (7.9%), total cholesterol levels and the duration of diabetes. Normal human sera (NHS) from 10 age and sex matched healthy subjects were also utilized as controls. Differentiated human podocytes were serum starved for 24 hours and then exposed to 4% serum of NHS, DM w/o DN, DM w DN for 24 hours. […] Total cholesterol was also determined with an enzymatic reaction. Total cholesterol was increased in podocytes treated with DM w DN when compared to DM w/o DN and NHS (FIG. 3D, *p<0.05), a phenomenon that was prevented by CD (FIG. 3D, #p<0.05). Cell blebbing was predictive of DN, as sera collected from patients before progressing to DN at the time they were normoalbuminuric already caused cell blebbing (FIG. 3E).

SMPDL-3B [2] = molecular target: T1, SMPDL-3B (Homo sapiens, UniProt Q92485); conditions: cited from earlier work
T1 sequence (Q92485 19-455): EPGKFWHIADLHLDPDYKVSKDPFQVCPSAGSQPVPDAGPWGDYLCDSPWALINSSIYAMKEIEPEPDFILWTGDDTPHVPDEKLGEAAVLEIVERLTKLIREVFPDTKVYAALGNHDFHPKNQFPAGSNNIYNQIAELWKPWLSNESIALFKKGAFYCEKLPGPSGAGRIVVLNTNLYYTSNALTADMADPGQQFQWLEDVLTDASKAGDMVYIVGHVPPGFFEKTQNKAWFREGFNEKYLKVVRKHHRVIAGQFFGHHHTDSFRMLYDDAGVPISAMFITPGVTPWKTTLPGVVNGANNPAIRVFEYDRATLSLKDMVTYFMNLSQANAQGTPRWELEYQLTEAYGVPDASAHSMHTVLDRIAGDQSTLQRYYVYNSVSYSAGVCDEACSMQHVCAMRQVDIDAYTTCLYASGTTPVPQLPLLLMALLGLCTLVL

CD19+ cells = assay: CD19 count in transplanted FSGS patients after rituximab; type: in vivo, human; conditions: N = 27
Description: W=white, B=black, M=male, F=female, ESRD=end stage renal disease, LD=living donor, DD=deceased donor. ΔeGFR: variation of eGFR. *p<0.05.

[3] = tested on: patients at high risk for recurrent FSGS after transplantation; assay: Clinical outcome after kidney transplantation in patients at high risk for recurrent FSGS, rituximab vs historical controls; type: in vivo, human
SMPDL-3b [4] = assay: SMPDL-3b expression in podocytes cultured with FSGS patient sera; type: cell-based, human; conditions: recurrent FSGS (FIG. 2)
Description: FIG. 2A: Depicts low- and high-power images of immunoperoxidase staining for SMPDL-3b and synaptopodin in post-reperfusion biopsies of patients with recurrent (REC) and non-recurrent (NON-REC) FSGS. Arrows point to podocytes. Scale bars: 25 μm top and 15 μm bottom. […] All kidney biopsies were obtained prior to initiation of treatment with rituximab. An average of 13±4 glomeruli per patient were analyzed. *p<0.05, unpaired Student's t test. Data are mean±s.d. […] Data are mean±s.d. *p<0.05 and **p<0.01 by one-way ANOVA. […] Data are mean±s.d. *p<0.05 and **p<0.01 by one-way ANOVA. […] Data are mean±s.d. *p<0.05 and **p<0.01 by one-way ANOVA. […] Data are mean±s.d. *p<0.05 and **p<0.01 by one-way ANOVA.
(A) Low- and high-power images of immunoperoxidase staining for SMPDL-3b and synaptopodin in post-reperfusion biopsies of patients with recurrent (REC) and non-recurrent (NON-REC) FSGS. Arrows point to podocytes. […] All kidney biopsies were obtained prior to initiation of treatment with rituximab. […] (G) ASMase activity per μg of total lysate protein, as evaluated by ELISA.

[5] = number of patients (%), N = 27, one dose of rituximab (375 mg/m^2) within 24 hours of transplant

Q: Which “LPS induced proteinuria (albumin/creatinine ratio by ELISA)” value (LPS induced proteinuria) does the source give for `CC(O)COC[C@H]1O[C@@H]2O[C@H]3[C@H](O)[C@@H](O)[C@@H](O[C@H]4[C@H](O)[C@@H](O)[C@@H](O[C@H]5[C@H](O)[C@@H](O)[C@@H](O[C@H]6[C@H](O)[C@@H](O)[C@@H](O[C@H]7[C@H](O)[C@@H](O)[C@@H](O[C@H]8[C@H](O)[C@@H](O)[C@@H](O[C@H]1[C@H](O)[C@H]2O)O[C@@H]8COCC(C)O)O[C@@H]7COCC(C)O)O[C@@H]6COCC(C)O)O[C@@H]5COCC(C)O)O[C@@H]4COCC(C)O)O[C@@H]3COCC(C)O` (stereo partly drawn) [Hydroxypropyl-beta-cyclodextrin] here?
A: Its value is “protects from Lipopolysaccharide (LPS) induced proteinuria”.

Q: With Methyl-beta-cyclodextrin as the compound, how does the cell blebbing [1] read?
A: The cell blebbing was “prevents”.

Q: Which “binding to SMPDL-3B” value (SMPDL-3B [2]) does the source give for rituximab here?
A: The value was “found to bind SMPDL-3B”.

Q: And the “CD 19 count” value (CD19+ cells; Week 0)?
A: Its value is 360 ± 223.

Q: What about the “CD 19 count” value (CD19+ cells; Week 0.5) of the same compound?
A: The value was 107 ± 115.

Q: And the “CD 19 count” value (CD19+ cells; Week 1)?
A: The value was 45 ± 31.

Q: What about the “CD 19 count” value (CD19+ cells; Week 2) of the same compound?
A: Its value is 16 ± 23.

Q: And the “CD 19 count” value (CD19+ cells; Week 3)?
A: Its value is 5 ± 6.

Q: And the “CD 19 count” value (CD19+ cells; Week 4)?
A: The value was 6 ± 7.

Q: What about the Graft survival ([3]; 6 months, N = 27) of the same compound?
A: The Graft survival was 100%.

Q: And the Graft survival ([3]; 12 months, N = 27)?
A: Its Graft survival is 95.8%.

Q: And the “difference in graft survival between groups” value ([3]; at 6 and 12 months, rituximab group vs control group)?
A: Its value is “no significant difference”.

Q: What about the “incidence of recurrent nephrotic range proteinuria and need for plasmapheresis” value ([3]; between day 3 and 30 after transplantation, rituximab group vs control group) of the same compound?
A: The value was “significantly lower”.

Q: What about the “Nephrotic proteinuria w/i 1 Mo” value [3, 5] of the same compound?
A: The value was 7 (26%).

Q: What about the “Plasmapheresis w/I 1 Mo” value [3, 5] of the same compound?
A: The value was 8 (30%).

Q: What about the “downregulation of SMPDL-3b” value (SMPDL-3b [4]) of the same compound?
A: Its value is “prevents the downregulation of SMPDL-3b”.

Reference: patent US10183038B2, “Method for preventing and treating renal disease” (L & F Research LLC, priority 2010, dated 2019)
